The values that follow come from US12589085B2, “Use of diaminoguanidine derivative and feed composition thereof in preparation of veterinary drug” (priority 2019, dated 2026).

Data set [1] concerns sperm. Conditions: oral once a day 5 days; for Total number of abnormal sperm / abnormal sperm: Amorphous / abnormal sperm: Banana shape / abnormal sperm: Double head / abnormal sperm: Double tail / abnormal sperm: Fat head / abnormal sperm: Fold tail / abnormal sperm: No hook: Day 35, 10000 sperm; for Number of Abnormal sperm (x ± SD) / Sperm deformity: Day 35, n = 10. As for the experimental part: Experimental animals: 60 clean-grade healthy male ICR mice having the average weight of 18-20 g, purchased from the Comparative Medicine Center of Yangzhou University.
Reagents: Test agent, Compound 2, provided by Guangzhou Insighter Biotechnology Co., Ltd., was prepared into a suspension of the required concentration with 1.0% sodium carboxymethyl cellulose before use; the mutagenic positive control article of cyclophosphamide with the content of 99.00%; other reagents include sodium chloride, methanol, and eosin, all of analytical grade; self-prepared physiological saline; self-prepared eosin aqueous solution (2%).
The test article, Compound 2 was diluted with 1.0% sodium carboxymethyl cellulose as a solvent, and it was given by oral in different concentrations and the same volume. There is also a positive control and a negative (solvent) control. The cyclophosphamide was selected as the positive control (40 mg/kg).
Grouping of experimental animals: 60 healthy male mice were individually weighed, labeled and numbered, and they were divided into 5 groups with 12 mice in each group using a completely random method. It was ensured that 10 animals in each group survive for sampling and film making after administration.
Administration: The administration method is carried out according to GB15193.7-2003. The test group, the negative control and the positive control are all given the test article by oral once a day for 5 consecutive days. The weight of the mouse for each administration was weighed, and the volume of the test article that each mouse should administer was calculated according to the requirements of the mouse 0.2 mL/10 g b.w.
Sampling and sample preparation: The mice were sacrificed by cervical dislocation on the Day 35 after the first administration, and sampling and film making were performed. 10 mice were sampled in each dose group. The abdominal cavity was cut, the epididymis on both sides were separated and extracted, and put in a petri dish containing 2 mL of normal saline; The mice were longitudinally cut with ophthalmological scissors for 2 times, the normal saline in it was pipetted with a straw for several times, and let stand for 3 min; the tissue fragments were filtered with a 4-layer of lens cleaning paper, 1 drop of the filtrate was drawn onto the glass slide, the slide was pushed with 4 slides per mouse; the slide in the air dried naturally, and fixed with methanol for 10 minutes, and dried; stained with 2% eosin for 1 h, the dye solution was gently washed off with water, and it was dried naturally before microscopic examination.
Data collation and analysis: The number of normal sperm, the number of abnormal sperm and the number of various types of abnormal sperm were read and counted in each dose group of mice. The sperm abnormality rate (%) of mice in each dose group and the percentage (%) of various types of abnormal sperm were calculated, and the standard deviation of the sperm abnormality rate of mice was also calculated in each dose group. Calculation as follows:
The sperm abnormality rate of mice in each dose group was statistically compared with the sperm abnormality rate of mice in the negative (solvent) control. The experimental data was processed by SPSS 11.0 statistical software, and the analysis results were expressed as x±SD, and the incidence of sperm abnormalities was statistically processed according to the X^2 (α=0.05).
If the dose of the test group has caused the animal to die, while the sperm abnormality has not increased, the result can be judged to be negative.

Data set [2] concerns sows suffering from endometritis. Kind of data set: Efficacy on endometritis in postpartum sows. The conditions noted are these: uterine perfusion 10 mg/kg once a day for 7 days; 30 sows. The data set is classed as in vivo, pig. As for the experimental part: Sows suffering from endometritis in 5 different pig farms were selected, 30 cases in each farm, 150 cases in total, were randomly divided into groups, and a non-treatment control was set up, and the sick pigs in each experimental group were perfused into the uterus. Agents, the main components of the uterine perfusion for treatment groups 1-4 were Compound 1, Compound 2, Compound 3, and Compound 4, respectively, at a dose of 10 mg/kg, and the control group was given an equal volume of normal saline. The frequency of administration is once a day for 7 consecutive days.

Data set [3] concerns TA97. Kind of data set: Salmonella typhimurium reverse mutation assay, plate incorporation, TA97. The conditions noted are these: positive control, TA97 −S9, 50 μg/100 μL dish. As for the experimental part: (§1) Test strains: A set of standard test strains of TA97, TA98, TA100 and TA102 were provided by the Jiangsu Provincial Center for Disease Control and Prevention, and stored at −80° C. The test bacteria were cultured in a 37° C. water bath with shaking for 24 hours and stored at 4° C.
(§2) Enrichment culture: The main plate or the frozen-preserved strain culture was inoculated into nutrient broth, and cultivated for 10 hours at 37° C. with shaking (100 times/min). The strain culture should be more than 1˜2×10^9 viable bacteria per milliliter.
(§3) According to the physicochemical properties of the test article, the Compound 2 was prepared before test: 0.1 g of Compound 2 white powder was under UV sterilization for 2 h before test, and dissolved in 10 mL of dimethyl sulfoxide (DMSO), and then diluted to the desired concentration for the use (fresh preparation). […]
(§4) Preparation of test agent solution: 0.1 mL of test agent solution was added to each dish, and the highest concentration and volume of test agent solution to be prepared were determined according to the set maximum test dose of 10 mg/mL. The amount of the test agent to be weighed was calculated when the solution was prepared. […]
(§5) Judgment and evaluation of results: The results of each test were sorted out, and the number of strains turned into colonies was expressed as (x±SD)/dish. […]

In data set [4] the test system is TA98. Kind of data set: Salmonella typhimurium reverse mutation assay, plate incorporation, TA98. The conditions noted are these: positive control, TA98 −S9, 50 μg/100 μL dish. As for the experimental part: as §1, §2, §3, §4, §5
Data set [5] relates to TA102. Kind of data set: Salmonella typhimurium reverse mutation assay, plate incorporation, TA102. Conditions: positive control, TA102 −S9, 1.0 μL/100 μL dish. As for the experimental part:
as §1, §2, §3, §4, §5

Read-outs that look alike come from different tables or passages of the source.

Turning to isopropoxyphenylguanidine [Compound 2], in data set [1] (high 500 mg/kg), the “Total number of abnormal sperm” value stood at 224, the “abnormal sperm: Amorphous” value is 106, the “abnormal sperm: Banana shape” value was found to be 22 and the “abnormal sperm: Double head” value is on record as 5. Further, in data set [1] (high 500 mg/kg), the “abnormal sperm: Double tail” value is on record as 9, the “abnormal sperm: Fat head” value is on record as 10, the “abnormal sperm: Fold tail” value turned out to be 9 and the “abnormal sperm: No hook” value was found to be 63. Besides, in data set [1] (high 500 mg/kg), the “Number of Abnormal sperm (x ± SD)” value stood at 22.40 ± 1.84 and the Sperm deformity is recorded as 2.17 ± 0.16%. In data set [1] (low 125 mg/kg), the “Total number of abnormal sperm” value was 223, the “abnormal sperm: Amorphous” value was determined as 118, the “abnormal sperm: Banana shape” value was 16 and the “abnormal sperm: Double head” value is recorded as 4. In data set [1] (low 125 mg/kg), the “abnormal sperm: Double tail” value was 6, the “abnormal sperm: Fat head” value is listed as 5, the “abnormal sperm: Fold tail” value is listed as 5 and the “abnormal sperm: No hook” value is reported as 69. In addition, in data set [1] (low 125 mg/kg), the “Number of Abnormal sperm (x ± SD)” value amounted to 22.30 ± 1.70 and the Sperm deformity was 2.15 ± 0.16%. Also, in data set [1] (medium 250 mg/kg), the “Total number of abnormal sperm” value is reported as 221, the “abnormal sperm: Amorphous” value amounted to 111, the “abnormal sperm: Banana shape” value is on record as 21 and the “abnormal sperm: Double head” value was found to be 5. In addition, in data set [1] (medium 250 mg/kg), the “abnormal sperm: Double tail” value stood at 7, the “abnormal sperm: Fat head” value was found to be 7, the “abnormal sperm: Fold tail” value is recorded as 5 and the “abnormal sperm: No hook” value is recorded as 65. Moreover, in data set [1] (medium 250 mg/kg), the “Number of Abnormal sperm (x ± SD)” value is given as 22.10 ± 1.37 and the Sperm deformity is listed as 2.14 ± 0.14%.
In the case of `COC(=O)c1ccc(/C=N/NC(=N)N/N=C/c2ccc(C(=O)OC)cc2)cc1` [Compound 4], in data set [2], the Cure rate came to 100%, the “Treatment effects: sows cured” value is on record as 25 sows were cured, and the “Treatment effects: sows improved in symptoms” value was 5 sows improved.
As to `N=C(N/N=C/c1ccc(OCc2ccccc2)cc1)N/N=C/c1ccc(OCc2ccccc2)cc1` [Compound 3], in data set [2], the Cure rate was found to be 90.0%, the “Treatment effects: sows cured” value was 25 sows were cured, and the “Treatment effects: sows improved in symptoms” value stood at 2 sows improved.
Turning to `N=C(N/N=C/c1ccc([N+](=O)[O-])cc1)N/N=C/c1ccc([N+](=O)[O-])cc1` [Compound 1], in data set [2], the Cure rate is recorded as 93.3%, the “Treatment effects: sows cured” value is 27 sows were cured, and the “Treatment effects: sows improved in symptoms” value stood at 1 sow improved sows.
With `CN(C)c1ccc(N=NS(=O)(=O)[O-])cc1.[Na+]` [Dixon, reference compound], the “reverting colonies per dish (x ± SD)” value in data set [3] (First) is on record as more than 2000; in data set [3] (Second), more than 2000; in data set [4] (First), 932.00 ± 57.17; in data set [4] (Second), more than 2000.
For the compound `COS(C)(=O)=O` [Methyl Methanesulfonate, methyl methanesulfonate, reference compound], the “reverting colonies per dish (x ± SD)” value in data set [5] (First) is given as 392.67 ± 12.86; in data set [5] (Second), more than 2000.
